Data on 18 compounds can be found in patent US8722661B2, “Pyrrolopyrimidone and pyrrolopyridone inhibitors of tankyrase” (Genentech, Inc., priority 2012, dated 2014).

For one assay, the target named is T1, Tankyrase 1 (TNKS1) (Homo sapiens, UniProt O95271).
T1 construct: construct: 1088-1327, 1266M
The assay is described as follows: μHTS-TNKS-IWR2 TR-FRET binding assay (TNKS1). How it is done: (§1) μHTS-TNKS-IWR2TR-FRET Binding Assay
(§2) (10 μL/well in BD1536-well plate, a single point)
Reagents and Stock Solutions
(§3) Biotin-IWR2: 10 mM Biotin-IWR2 stock in DMSO, stored at −20° C.
Assay buffer 1a (AB 1a) for TNKS dilution: 50 mM Tris, pH 7.4, 100 mM sodium chloride solution, 1 mM magnesium chloride solution, 1 mM DL-dithiothreitol solution, 0.2 mg/mL bovine serum albumin solution, 0.025% NP-40.
Assay buffer 1b (AB 1b) for Biotin-IWR2 dilution: 50 mM Tris, pH 7.4, 100 mM sodium chloride solution, 1 mM magnesium chloride solution, 1 mM DL-dithiothreitol solution, 0.2 mg/mL bovine serum albumin solution, 0.05% NP-40
Assay buffer 1c (AB 1c) for compound dilution: 50 mM Tris, pH 7.4, 100 mM sodium chloride solution, 1 mM magnesium chloride solution, 1 mM DL-dithiothreitol solution, 0.2 mg/mL bovine serum albumin solution
Assay buffer 2 (AB2) for Eu/APC: 50 mM Tris, pH 7.4, 100 mM sodium chloride solution, 1 mM magnesium chloride solution, 0.2 mg/mL bovine serum albumin solution
Reagent Stock Solution Preparation
Prepare BLANK well stock solution: 5% DMSO/AB1b buffer
Prepare TNKS1 stock solution (5× stock): 300 nM TNKS in AB1a buffer
(§4) Transfer 3 μL/well above solution (solution 1,2,3) to an empty assay plate (BD1536-well plate) as follows:
TOTL and cpd wells: Solution 1 (Biotin-IWR2):
BLNK wells: Solution 2 (No Biotin-IWR2):
POSITIVE CONTROL wells: Solution 3 (Biotin-IWR2+XAV939)
(§5) Transfer 3 μL/well of the above diluted compound solutions or compound dilution buffer to the above assay plate.
(§6) Add 2 μL/well of 300 nM TNKS stock solution (4) to every well in the above assay plate.
Centrifuge the assay plate at 2100 rpm for 2 minutes.
(§7) Incubate the assay plate at 26° C. for 30 minutes.
(§8) Incubate the assay plate at 26° C. for 60 minutes.

The next assay has as its target T2, tankyrase 2 (His6-TNKS2) (Homo sapiens, UniProt Q9H2K2).
T2 construct: His6-tankyrase 2 (construct: 934-1166)
The assay is described as follows: μHTS-TNKS-IWR2 TR-FRET binding assay with His6-TNKS2 in place of TNKS1. Particulars: Table I. How it is done: as §1, §2
(§9) Alternatively, in place of His6-TNKS1 can use either His6-tankyrase 2 (construct: 934-1166) (His6-TNKS2) or His6-PARP1 (full length).
as §3
Positive control: 10 mM XAV 939 in DMSO, stored at −20° C.
(§10) Prepare Biotinylated IWR2 stock solution (3.33× stock) for TOTL and cpd wells: 200 nM Biotin-IWR2 in 5% DMSO/AB1b buffer
(§11) Prepare POSITIVE CONTROL well stock solution (3.33× stock): 200 nM XAV939 in 200 nM Biotin-IWR2/5% DMSO/AB1b buffer
(§12) (Alternatively, use TNKS2 or PARP1 stock solutions.)
(§13) Prepare Eu/APC stock solution (5× stock): 3.5 nM Eu-SA/50 nM APC-His6Ab in AB2 buffer
(§14) Add 25 μL/well 1.5% DMSO/AB1c buffer in each compound well to the compound concentration at 74 μM in 8.8% DMSO/AB1c buffer or in the 2 μL DMSO CONTROL wells (BLANK, TOTAL and POSITIVE wells) in the compound plate.
as §4, §5, §6, §7, §8
(§15) Read the assay plate immediately at excitation wavelength of 330 nm and emission wavelength of […] in time resolved fluorescence mode.
(§16) Representative compound data for assays are listed below in Table I. Values are in uM.

The target in assay [1] is T3, PARP1 (His6-PARP1, full length) (Homo sapiens, UniProt P09874).
T3 construct: His6-PARP1 (full length)
T3 sequence (P09874 whole entry): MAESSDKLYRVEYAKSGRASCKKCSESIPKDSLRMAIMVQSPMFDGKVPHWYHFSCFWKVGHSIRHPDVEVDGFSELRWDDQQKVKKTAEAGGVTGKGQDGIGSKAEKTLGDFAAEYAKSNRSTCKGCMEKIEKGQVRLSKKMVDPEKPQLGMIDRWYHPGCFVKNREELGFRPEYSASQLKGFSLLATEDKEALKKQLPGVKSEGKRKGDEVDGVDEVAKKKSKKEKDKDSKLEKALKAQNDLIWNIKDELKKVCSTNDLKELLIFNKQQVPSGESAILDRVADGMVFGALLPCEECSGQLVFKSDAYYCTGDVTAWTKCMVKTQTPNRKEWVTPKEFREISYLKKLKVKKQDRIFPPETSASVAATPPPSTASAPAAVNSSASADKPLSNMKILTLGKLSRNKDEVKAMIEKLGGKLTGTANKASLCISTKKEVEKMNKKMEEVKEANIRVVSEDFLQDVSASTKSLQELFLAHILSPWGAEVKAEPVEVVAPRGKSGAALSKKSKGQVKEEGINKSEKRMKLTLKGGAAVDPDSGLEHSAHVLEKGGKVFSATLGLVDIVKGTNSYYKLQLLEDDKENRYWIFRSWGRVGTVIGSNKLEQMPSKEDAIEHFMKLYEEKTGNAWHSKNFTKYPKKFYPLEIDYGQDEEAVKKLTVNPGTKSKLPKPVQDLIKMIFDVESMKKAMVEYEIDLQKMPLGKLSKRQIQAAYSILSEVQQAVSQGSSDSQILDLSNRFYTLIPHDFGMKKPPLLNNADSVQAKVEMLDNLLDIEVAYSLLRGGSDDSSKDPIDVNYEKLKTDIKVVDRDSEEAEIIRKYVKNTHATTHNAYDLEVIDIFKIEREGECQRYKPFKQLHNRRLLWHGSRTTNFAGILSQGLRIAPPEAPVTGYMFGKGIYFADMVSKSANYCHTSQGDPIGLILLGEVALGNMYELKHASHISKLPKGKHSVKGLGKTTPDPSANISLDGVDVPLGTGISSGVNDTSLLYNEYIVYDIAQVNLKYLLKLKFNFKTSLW
The assay is described as follows: μHTS-TNKS-IWR2 TR-FRET binding assay with His6-PARP1 in place of TNKS1. The note with it: Table I. The protocol:
as §1, §2, §9, §3
Positive control: 10 mM […] in DMSO, stored at −20° C.
as §10, §11, §12, §13, §14, §4, §5, §6, §7, §8, §15, §16

T1 sequence (O95271 1088-1327): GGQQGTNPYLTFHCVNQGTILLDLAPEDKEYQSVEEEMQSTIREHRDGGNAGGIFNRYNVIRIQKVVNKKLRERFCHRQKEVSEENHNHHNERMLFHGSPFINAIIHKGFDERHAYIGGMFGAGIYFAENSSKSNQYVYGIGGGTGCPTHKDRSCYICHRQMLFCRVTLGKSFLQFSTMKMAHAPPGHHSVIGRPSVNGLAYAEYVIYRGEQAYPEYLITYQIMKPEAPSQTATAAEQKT
T2 sequence (Q9H2K2 934-1166): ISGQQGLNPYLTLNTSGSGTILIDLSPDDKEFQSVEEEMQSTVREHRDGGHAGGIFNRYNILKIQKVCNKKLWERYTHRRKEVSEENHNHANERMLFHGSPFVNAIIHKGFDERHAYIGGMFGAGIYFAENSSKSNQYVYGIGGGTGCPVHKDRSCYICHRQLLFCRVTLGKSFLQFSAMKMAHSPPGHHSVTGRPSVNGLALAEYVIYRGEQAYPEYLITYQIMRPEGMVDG

Consider `Cn1ccc2c(=O)[nH]c(-c3ccc(C(F)(F)F)cc3)cc21` [Example 45, 1-Methyl-6-(4-trifluoromethyl-phenyl)-1,5-dihydro-pyrrolo[3,2-c]pyridin-4-one], for which the IC50 at Tankyrase 1 (TNKS1) stood at 40 nM; on tankyrase 2 (His6-TNKS2), 39 nM; in assay [1] it was 842 nM.
In the same order, the values of `CCn1ccc2c(=O)[nH]c(-c3ccc(C(F)(F)F)cc3)cc21` [Example 46, 1-Ethyl-6-(4-trifluoromethyl-phenyl)-1,5-dihydro-pyrrolo[3,2-c]pyridin-4-one] are 123 nM, 132 nM and over 50000 nM.
In the same order, the values of `Cn1cc(-c2cc3c(ccn3C)c(=O)[nH]2)cn1` [Example 47, 1-Methyl-6-(1-methyl-1H-pyrazol-4-yl)-1,5-dihydro-pyrrolo[3,2-c]pyridin-4-one] are 164 nM, 135 nM and 292 nM.
In the same order, the values of `Cn1ccc2c(=O)[nH]c(N3CCC(c4ccc(F)cc4)CC3)nc21` [Example 48, 2-[4-(4-Fluoro-phenyl)-piperidin-1-yl]-7-methyl-3,7-dihydro-pyrrolo[2,3-d]pyrimidin-4-one] are 43 nM, 43 nM and 4700 nM.
`C=CCCn1ccc2c(=O)[nH]c(-c3ccc(C(F)(F)F)cc3)nc21` [Example 49, 7-But-3-enyl-2-(4-trifluoromethyl-phenyl)-3,7-dihydro-pyrrolo[2,3-d]pyrimidin-4-one]: the values for the IC50 (at Tankyrase 1 (TNKS1); at tankyrase 2 (His6-TNKS2); in assay [1]) were 1280 nM, 1360 nM and over 50000 nM, respectively.
In the case of `CCn1ccc2c(=O)[nH]c(-c3ccc(C(F)(F)F)cc3)nc21` [Example 50, 7-Ethyl-2-(4-trifluoromethyl-phenyl)-3,7-dihydro-pyrrolo[2,3-d]pyrimidin-4-one], the IC50 on Tankyrase 1 (TNKS1) was 176 nM; on tankyrase 2 (His6-TNKS2), 163 nM; in assay [1] it was over 50000 nM.
The matching figures for `CCCn1ccc2c(=O)[nH]c(-c3ccc(C(F)(F)F)cc3)nc21` [Example 51, 7-Propyl-2-(4-trifluoromethyl-phenyl)-3,7-dihydro-pyrrolo[2,3-d]pyrimidin-4-one]: 535 nM, 640 nM and over 50000 nM.
Consider `C=CCn1ccc2c(=O)[nH]c(-c3ccc(C(F)(F)F)cc3)nc21` [Example 52, 7-Allyl-2-(4-trifluoromethyl-phenyl)-3,7-dihydro-pyrrolo[2,3-d]pyrimidin-4-one], for which the IC50 at Tankyrase 1 (TNKS1) is 750 nM; at tankyrase 2 (His6-TNKS2), 730 nM; in assay [1] it was over 50000 nM.
Turning to `O=c1[nH]c(-c2ccc(C(F)(F)F)cc2)nc2c1ccn2CCC(O)CO` (stereo not drawn) [Example 53, 7-(3,4-Dihydroxy-butyl)-2-(4-trifluoromethyl-phenyl)-3,7-dihydro-pyrrolo[2,3-d]pyrimidin-4-one], the IC50 at Tankyrase 1 (TNKS1) turned out to be 240 nM; on tankyrase 2 (His6-TNKS2), 168 nM; in assay [1], 2380 nM.
In the same order, the values of `O=c1[nH]c(-c2ccc(C(F)(F)F)cc2)nc2c1ccn2CC(O)CO` (stereo not drawn) [Example 54, 7-(2,3-Dihydroxy-propyl)-2-(4-trifluoromethyl-phenyl)-3,7-dihydro-pyrrolo[2,3-d]pyrimidin-4-one] are 425 nM, 237 nM and 13500 nM.
In the same order, the values of `CCNC(=O)c1ccc(N2CCN(c3nc4c(ccn4C)c(=O)[nH]3)CC2)cc1` [Example 55, N-Ethyl-4-[4-(7-methyl-4-oxo-4,7-dihydro-3H-pyrrolo[2,3-d]pyrimidin-2-yl)-piperazin-1-yl]-benzamide] are 37 nM, 40 nM and 449 nM.
In the same order, the values of `Cn1ccc2c(=O)[nH]c(-n3cccn3)nc21` [Example 56, 7-Methyl-2-pyrazol-1-yl-3,7-dihydro-pyrrolo[2,3-d]pyrimidin-4-one] are 7800 nM, 9160 nM and over 50000 nM.
For the compound `O=c1[nH]c(-c2ccc(C(F)(F)F)cc2)nc2c1ccn2CO` [Example 57, 7-Hydroxymethyl-2-(4-trifluoromethyl-phenyl)-3,7-dihydro-pyrrolo[2,3-d]pyrimidin-4-one], the IC50 stood at 48 nM on Tankyrase 1 (TNKS1), 65 nM at tankyrase 2 (His6-TNKS2) and 1880 nM in assay [1].
The matching figures for `Cn1ccc2c(=O)[nH]c(N3CC(C)(c4ccccc4)C3)nc21` [Example 58, 7-Methyl-2-(3-methyl-3-phenyl-azetidin-1-yl)-3,7-dihydro-pyrrolo[2,3-d]pyrimidin-4-one]: 108 nM, 100 nM and 1310 nM.
In the same order, the values of `O=c1[nH]c(-c2ccc(C(F)(F)F)cc2)nc2c1ccn2C1CC1` [Example 59, 7-Cyclopropyl-2-(4-trifluoromethyl-phenyl)-3,7-dihydro-pyrrolo[2,3-d]pyrimidin-4-one] are 545 nM, 619 nM and over 50000 nM.
The matching figures for `O=c1[nH]c(N2CCN(c3ccccc3F)CC2)nc2c1ccn2CO` [Example 60, 2-[4-(2-Fluoro-phenyl)-piperazin-1-yl]-7-hydroxymethyl-3,7-dihydro-pyrrolo[2,3-d]pyrimidin-4-one]: 33 nM, 55 nM and 10600 nM.
With `O=c1[nH]c(N2CCN(c3c(F)cccc3F)CC2)nc2c1ccn2CC(O)CO` (stereo not drawn) [Example 61, 2-(4-(2,6-difluorophenyl)piperazin-1-yl)-7-(2,3-dihydroxypropyl)-3H-pyrrolo[2,3-d]pyrimidin-4(7H)-one], the IC50 came to 34 nM on Tankyrase 1 (TNKS1), 28 nM on tankyrase 2 (His6-TNKS2) and 14800 nM in assay [1].
The matching figures for `Cn1ccc2c(=O)[nH]c(-c3ccccc3)nc21` [Example 62, 7-Methyl-2-phenyl-3,7-dihydro-pyrrolo[2,3-d]pyrimidin-4-one]: 117 nM, 154 nM and 3920 nM.
